pIC50: −log10 of the molar value.
Columns and labels:
Rattus norvegicus [1] = experiment: AUC (0 to infinity) in Sprague-Dawley rat at 1 mg/kg, iv measured during 1 to 24 hrs by LC-MS method; assay type: ADME, organism-based, Plasma; design: time infinity, dose 1 mg/kg, route intravenous; conditions: in vivo
Rattus norvegicus [2] = experiment: Volume of distribution in Sprague-Dawley rat at 10 mg/kg, po measured during 1 to 24 hrs by LC-MS method; assay type: ADME, organism-based; design: dose 10 mg/kg, route oral; conditions: in vivo
Rattus norvegicus [3] = experiment: Tmax in Sprague-Dawley rat at 10 mg/kg, po measured during 1 to 24 hrs by LC-MS method; assay type: ADME, organism-based; design: dose 10 mg/kg, route oral; conditions: in vivo
[4] = Cmax in Sprague-Dawley rat at 1 mg/kg, iv measured during 1 to 24 hrs by LC-MS method; assay type: ADME, organism-based; design: dose 1 mg/kg, route intravenous; conditions: in vivo
Rattus norvegicus [5] = experiment: Half life in Sprague-Dawley rat at 10 mg/kg, po measured during 1 to 24 hrs by LC-MS method; assay type: ADME, organism-based; design: dose 10 mg/kg, route oral; conditions: in vivo
Rattus norvegicus [6] = experiment: Apparent oral clearance in Sprague-Dawley rat at 10 mg/kg, po measured during 1 to 24 hrs by LC-MS method; assay type: ADME, organism-based; design: dose 10 mg/kg, route oral; conditions: in vivo
[7] = Cmax in Sprague-Dawley rat at 10 mg/kg, po measured during 1 to 24 hrs by LC-MS method; assay type: ADME, organism-based; design: dose 10 mg/kg, route oral; conditions: in vivo
Rattus norvegicus [8] = experiment: Half life in Sprague-Dawley rat at 1 mg/kg, iv measured during 1 to 24 hrs by LC-MS method; assay type: ADME, organism-based; design: dose 1 mg/kg, route intravenous; conditions: in vivo
[9] = target: Prostaglandin G/H synthase 1 (Homo sapiens, UniProt P23219); experiment: Inhibition of human recombinant COX1 pre-incubated for 15 mins before fluorometric substrate addition by fluorescence based assay
Prostaglandin G/H synthase 1, sequence (P23219 whole entry): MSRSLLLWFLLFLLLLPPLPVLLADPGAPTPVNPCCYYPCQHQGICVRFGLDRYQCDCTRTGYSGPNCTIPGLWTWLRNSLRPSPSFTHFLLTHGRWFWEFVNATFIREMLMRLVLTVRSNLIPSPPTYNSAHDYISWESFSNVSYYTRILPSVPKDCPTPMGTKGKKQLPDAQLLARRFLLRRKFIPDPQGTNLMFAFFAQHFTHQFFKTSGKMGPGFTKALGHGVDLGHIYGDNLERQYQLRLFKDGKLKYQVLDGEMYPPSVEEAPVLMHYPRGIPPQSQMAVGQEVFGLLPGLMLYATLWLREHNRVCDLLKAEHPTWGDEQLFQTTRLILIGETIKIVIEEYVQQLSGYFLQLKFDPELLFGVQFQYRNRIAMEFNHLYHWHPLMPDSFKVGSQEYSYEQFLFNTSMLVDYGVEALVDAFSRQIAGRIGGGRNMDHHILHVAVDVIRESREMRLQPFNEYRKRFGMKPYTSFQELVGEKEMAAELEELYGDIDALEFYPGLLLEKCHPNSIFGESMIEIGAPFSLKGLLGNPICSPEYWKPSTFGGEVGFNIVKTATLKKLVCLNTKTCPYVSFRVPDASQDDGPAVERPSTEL

[10] = Volume of distribution in Sprague-Dawley rat at 1 mg/kg, iv measured during 1 to 24 hrs by LC-MS method; assay type: ADME, organism-based; design: dose 1 mg/kg, route intravenous; conditions: in vivo
Rattus norvegicus [11] = experiment: AUC (0 to infinity) in Sprague-Dawley rat at 10 mg/kg, po measured during 1 to 24 hrs by LC-MS method; assay type: ADME, organism-based, Plasma; design: time infinity, dose 10 mg/kg, route oral; conditions: in vivo
Rattus norvegicus [12] = experiment: Antiinflammatory activity in orally dosed Sprague-Dawley rat model of carrageenan-induced air pouch inflammation assessed as reduction in PGE2 level by ELISA method; assay type: functional, organism-based
[13] = Apparent oral clearance in Sprague-Dawley rat at 1 mg/kg, iv measured during 1 to 24 hrs by LC-MS method; assay type: ADME, organism-based; design: dose 1 mg/kg, route oral; conditions: in vivo
Rattus norvegicus [14] = experiment: Oral bioavailability in Sprague-Dawley rat at 10 mg/kg measured during 1 to 24 hrs by LC-MS method; assay type: ADME, organism-based; conditions: in vivo
[15] = target: T1, Prostaglandin G/H synthase 2 (Homo sapiens, UniProt P35354); experiment: Inhibition of human recombinant COX2 pre-incubated for 15 mins before fluorometric substrate addition by fluorescence based assay
T1 sequence (P35354 whole entry): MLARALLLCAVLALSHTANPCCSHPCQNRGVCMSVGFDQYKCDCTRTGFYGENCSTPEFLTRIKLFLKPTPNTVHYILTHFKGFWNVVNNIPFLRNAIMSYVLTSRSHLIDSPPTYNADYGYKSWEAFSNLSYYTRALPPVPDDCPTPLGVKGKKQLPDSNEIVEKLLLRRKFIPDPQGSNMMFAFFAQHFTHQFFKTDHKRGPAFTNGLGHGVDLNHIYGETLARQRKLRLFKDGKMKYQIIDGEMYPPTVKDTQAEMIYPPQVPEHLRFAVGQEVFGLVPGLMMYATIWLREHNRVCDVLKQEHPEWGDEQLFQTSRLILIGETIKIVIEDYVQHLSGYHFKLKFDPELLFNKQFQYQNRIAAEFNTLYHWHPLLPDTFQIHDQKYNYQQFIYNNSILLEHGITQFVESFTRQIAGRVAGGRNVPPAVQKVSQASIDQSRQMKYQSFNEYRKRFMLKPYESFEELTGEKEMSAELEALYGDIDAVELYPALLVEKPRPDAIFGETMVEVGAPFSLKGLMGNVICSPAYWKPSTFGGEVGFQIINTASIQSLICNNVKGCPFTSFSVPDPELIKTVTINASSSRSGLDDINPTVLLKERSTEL

[16] = Oral bioavailability in Sprague-Dawley rat at 2.5 mg/kg measured during 1 to 24 hrs by LC-MS method; assay type: ADME, organism-based; conditions: Sprague-Dawley, in vivo
[17] = Cmax in Sprague-Dawley rat at 2.5 mg/kg, po measured during 1 to 24 hrs by LC-MS method; assay type: ADME, organism-based; design: dose 2.5 mg/kg, route oral; conditions: in vivo
Rattus norvegicus [18] = experiment: Tmax in Sprague-Dawley rat at 2.5 mg/kg, po measured during 1 to 24 hrs by LC-MS method; assay type: ADME, organism-based; design: dose 2.5 mg/kg, route oral; conditions: in vivo
Rattus norvegicus [19] = experiment: Half life in Sprague-Dawley rat at 2.5 mg/kg, po measured during 1 to 24 hrs by LC-MS method; assay type: ADME, organism-based; design: dose 2.5 mg/kg, route oral; conditions: in vivo
[20] = Apparent oral clearance in Sprague-Dawley rat at 2.5 mg/kg, po measured during 1 to 24 hrs by LC-MS method; assay type: ADME, organism-based; design: dose 2.5 mg/kg, route oral; conditions: Sprague-Dawley, in vivo
Rattus norvegicus [21] = experiment: AUC (0 to infinity) in Sprague-Dawley rat at 2.5 mg/kg, po measured during 1 to 24 hrs by LC-MS method; assay type: ADME, organism-based, Plasma; design: dose 2.5 mg/kg, route oral, time infinity; conditions: in vivo

Row | AUC (Rattus norvegicus [1]) [ng·h/mL] | Cmax [4] [ng/mL] | t1/2 (Rattus norvegicus [8]) [h] | pIC50 [9] | Vd [10] [L/kg] | EC50 (Rattus norvegicus [12]) [mg/kg] | CL/F [13] [mL/min/kg] | SMILES | further results
1 | 4898.988 | 5040 | 1.5 | < 4.00 | 0.45 | 0.77 | 3.45 | Cc1cc2c(c(C)c1Cl)C=C(C(=O)O)C(C(F)(F)F)O2 (centres undefined) | Vd (Rattus norvegicus [2]): 1.25 L/kg; Tmax (Rattus norvegicus [3]): 0.438 h; t1/2 (Rattus norvegicus [5]): 3.09 h; CL/F (Rattus norvegicus [6]): 3.25 mL/min/kg; Cmax [7]: 6590 ng/mL; AUC (Rattus norvegicus [11]): 12846.927 ng·h/mL; F (Rattus norvegicus [14]): 78.5%
2 | – | – | – | < 4.00 | – | – | – | [2H]C([2H])([2H])c1cc2c(c(C([2H])([2H])[2H])c1)OC(C(F)(F)F)C(C(=O)O)=C2 (centres undefined) | –
3 | – | – | – | < 4.00 | – | – | – | [2H]C([2H])([2H])c1cc2c(c(C([2H])([2H])[2H])c1Br)C=C(C(=O)O)[C@@H](C(F)(F)F)O2 | pIC50 [15]: 8.05
4 | 1440.446 | 4130 | 0.59 | – | 0.59 | 0.61 | 11.8 | Cc1cc(Cl)cc2c1OC(C(F)(F)F)C(C(=O)O)=C2 (centres undefined) | bioavailability [16]: 128%; Cmax [17]: 2720 ng/mL; Tmax (Rattus norvegicus [18]): 0.25 h; t1/2 (Rattus norvegicus [19]): 1.75 h; CL/F [20]: 9.12 mL/min/kg; AUC (Rattus norvegicus [21]): 4627.624 ng·h/mL

— ChEMBL document CHEMBL3351875, “Synthesis of Deuterated Benzopyran Derivatives as Selective COX-2 Inhibitors with Improved Pharmacokinetic Properties” (ACS Med Chem Lett, 2014)
